Assay results taken from ChEMBL document CHEMBL5215006, “Antitumor Activity of Piceamycin by Upregulation of N-Myc Downstream-Regulated Gene 1 in Human Colorectal Cancer Cells” (J Nat Prod, 2022).
Activity calls are given as the source filed them. The rule behind the calls is not given here.

Experiments:
SW480 [1] = assay: Cell cycle arrest in human SW480 cells assessed as accumulation at Sub-G1 phase at 0.35 uM incubated for 24 hrs by RNaseA/propidium iodide staining based flow cytometry (reference value: 3.2 %); assay type: functional
HCT-116 [2] = assay: Anti-migratory activity against human HCT-116 cells assessed as downregulation of N-cadherin gene expression at 0.075 to 0.3 uM incubated for 24 hrs by RT-PCR assay; assay type: functional, cell-based; settings: dose 0.075-0.3 µM
HCT-116 [3] = assay: Induction of apoptosis in human HCT-116 cells assessed as early apoptotic cells at 0.075 uM incubated for 48 hrs by Annexin V-FITC/PI staining based flow cytometry analysis (Rvb= 2.51%); assay type: functional
HCT-116 [4] = assay: Cell cycle arrest in human HCT-116 cells assessed as accumulation at G2/M phase at 0.075 uM incubated for 24 hrs by RNaseA/propidium iodide staining based flow cytometry (reference value: 28.41 %); assay type: functional
HCT-116 [5] = assay: Downregulation of cleaved PARP protein expression in human HCT-116 cells with NDRG1 knockdown at 0.3 uM incubated for 24 hrs by immunoblotting assay; assay type: functional, cell-based
HCT-116 [6] = assay: Antitumor activity against human HCT-116 cells xenografted Balb/c mouse assessed as increase in NDRG1 protein expression at 1 mg/kg,ip administrated for 18 days by 3 times per week by immunoblotting assay; assay type: functional, organism-based; settings: time 18.0 day
SW480 [7] = assay: Anti-migratory activity against human SW480 cells assessed as downregulation of N-cadherin gene expression at 0.35 to 1.4 uM incubated for 24 hrs by RT-PCR assay; assay type: functional, cell-based; settings: dose 0.35-1.4 µM
HCT-116 [8] = assay: Induction of apoptosis in human HCT-116 cells assessed as necrotic cells at 0.075 uM incubated for 48 hrs by Annexin V-FITC/PI staining based flow cytometry analysis (Rvb= 0.13%); assay type: functional
HCT-116 [9] = assay: Antiproliferative activity against human HCT-116 cells assessed as cell growth inhibition incubated for 72 hrs by SRB assay; assay type: functional, cell-based; settings: HCT-116, 72 h
SW480 [10] = assay: Cell cycle arrest in human SW480 cells assessed as downregulation of CDK6 protein expression at 0.35 to 1.4 uM incubated for 24 hrs by immunoblotting assay; assay type: functional, cell-based; settings: dose 0.35-1.4 µM
HCT-116 [11] = assay: Antitumor activity against human HCT-116 cells assessed as upregulation of NDRG1 gene expression at 0.075 to 0.3 uM incubated for 24 hrs by RT-PCR method; assay type: functional, cell-based; settings: dose 0.075-0.3 µM, DDE = dose-dependent effect
HCT-116 [12] = assay: Induction of apoptosis in human HCT-116 cells assessed as necrotic cells at 0.3 uM incubated for 48 hrs by Annexin V-FITC/PI staining based flow cytometry analysis (Rvb= 0.13%); assay type: functional
HCT-116 [13] = assay: Anti-migratory activity against highly liver metastatic human HCT-116 cells assessed as reduction in migration to 0.075 to 0.3 uM incubated for 24 hrs by wound healing assay; assay type: functional, cell-based; settings: dose 0.075-0.3 µM, DDE = dose-dependent effect
SW480 [14] = assay: Induction of apoptosis in human SW480 cells assessed as late apoptotic cells at 0.35 uM incubated for 48 hrs by Annexin V-FITC/PI staining based flow cytometry analysis (Rvb= 5.26%); assay type: functional
SW480 [15] = assay: Induction of apoptosis in human SW480 cells assessed as necrotic cells at 0.7 uM incubated for 48 hrs by Annexin V-FITC/PI staining based flow cytometry analysis (Rvb= 0.07%); assay type: functional
SW480 [16] = assay: Cell cycle arrest in human SW480 cells assessed as accumulation at G2/M phase at 0.35 uM incubated for 24 hrs by RNaseA/propidium iodide staining based flow cytometry (reference value: 24.74 %); assay type: functional
SW480 [17] = assay: Antitumor activity against human SW480 cells assessed as upregulation of NDRG1 gene expression at 0.35 to 1.4 uM incubated for 24 hrs by RT-PCR method; assay type: functional, cell-based; settings: dose 0.35-1.4 µM, DDE = dose-dependent effect
SW480 [18] = assay: Anti-migratory activity against human SW480 cells assessed as upregulation of E-cadherin protein expression at 0.35 to 1.4 uM incubated for 24 hrs by immunoblotting assay; assay type: functional, cell-based; settings: dose 0.35-1.4 µM
SW480 [19] = assay: Induction of apoptosis in human SW480 cells assessed as upregulation of cleaved PARP expression at 1.4 uM measured at 12 to 48 hrs by immunoblotting assay; assay type: functional, cell-based; settings: time 12-48 hrs, TDE = time-dependent effect
HCT-116 [20] = assay: Antimigratory activity against highly liver metastatic human HCT-116 cells assessed as upregulation of NDRG1 protein expression at 0.075 to 0.3 uM incubated for 24 hrs by immunoblotting assay; assay type: functional, cell-based; settings: dose 0.075-0.3 µM
SW480 [21] = assay: Anti-migratory activity against human SW480 cells assessed as downregulation of Snail protein expression at 0.35 to 1.4 uM incubated for 24 hrs by immunoblotting assay; assay type: functional, cell-based; settings: dose 0.35-1.4 µM
SW480 [22] = assay: Anti-migratory activity against human SW480 cells assessed as upregulation of E-cadherin gene expression at 0.35 to 1.4 uM incubated for 24 hrs by RT-PCR assay; assay type: functional, cell-based; settings: dose 0.35-1.4 µM
HCT-116 [23] = assay: Cell cycle arrest in human HCT-116 cells assessed as accumulation at G2/M phase at 0.3 uM incubated for 24 hrs by RNaseA/propidium iodide staining based flow cytometry (reference value: 28.41 %); assay type: functional
HCT-116 [24] = assay: Antitumor activity against human HCT-116 cells xenografted Balb/c mouse assessed as increase in NDRG1 protein expression at 3 mg/kg,ip administrated for 18 days by 3 times per week by immunoblotting assay; assay type: functional, organism-based; settings: time 18.0 day
SW480 [25] = assay: Antitumor activity against human SW480 cells assessed as upregulation of NDRG1 protein expression at 0.35 to 1.4 uM incubated for 24 hrs by immunoblotting assay; assay type: functional, cell-based; settings: dose 0.35-1.4 µM, DDE = dose-dependent effect
HCT-116 [26] = assay: Antimigratory activity against highly liver metastatic human HCT-116 cells assessed as downregulation of Snail gene expression at 0.075 to 0.3 uM incubated for 24 hrs by RT-PCR method; assay type: functional, cell-based; settings: dose 0.075-0.3 µM
SW480 [27] = assay: Cell cycle arrest in human SW480 cells assessed as accumulation at Sub-G1 phase at 1.4 uM incubated for 24 hrs by RNaseA/propidium iodide staining based flow cytometry (reference value: 3.2 %); assay type: functional
HCT-116 [28] = assay: Antitumor activity against human HCT-116 cells assessed as decrease in c-Myc expression at 0.075 to 0.3 uM incubated for 24 hrs by immunoblotting assay; assay type: functional, cell-based; settings: dose 0.075-0.3 µM
HCT-116 [29] = assay: Induction of apoptosis in human HCT-116 cells assessed as downregulation of survivin expression at 0.3 uM measured at 12 to 48 hrs by immunoblotting assay; assay type: functional, cell-based; settings: time 12-48 hrs, TDE = time-dependent effect
HCT-116 [30] = assay: Cell cycle arrest in human HCT-116 cells assessed as accumulation at G2/M phase at 0.15 uM incubated for 24 hrs by RNaseA/propidium iodide staining based flow cytometry (reference value: 28.41 %); assay type: functional
HCT-116 [31] = assay: Antitumor activity against human HCT-116 cells assessed as upregulation of NDRG1 protein expression at 0.075 to 0.3 uM incubated for 24 hrs by immunoblotting assay; assay type: functional, cell-based; settings: dose 0.075-0.3 µM, DDE = dose-dependent effect
SW480 [32] = assay: Cell cycle arrest in human SW480 cells assessed as accumulation at G0/G1 phase at 1.4 uM incubated for 24 hrs by RNaseA/propidium iodide staining based flow cytometry (reference value: 54.49 %); assay type: functional
[33] = Toxicity in Balb/c mouse xenografted with human HCT-116 cells assessed as body weight change at 3 mg/kg,ip administrated for 18 days by 3 times per week; assay type: organism-based; settings: in vivo, 432 h, time 18 day

For C[C@@H]1\C=C/C=C/C=C\C=C\C=C\C(=O)C2=C(O)C(=O)C[C@@]2(C)/C=C/C=C\C=C/C(=O)NC1, the Activity (SW480 [1]) was 5.1%, the Activity (HCT-116 [2]) was “Active” and the Activity (HCT-116 [3]) was 8.29%. For the same molecule, the Activity (HCT-116 [4]) was 29.02%, the Activity (HCT-116 [5]) was “Active” and the Activity (HCT-116 [6]) was “Active”. For the same molecule, the Activity (SW480 [7]) was “Active”, the Activity (HCT-116 [8]) was 0.16% and the IC50 (HCT-116 [9]) was 140 nM. For the same molecule, the Activity (SW480 [10]) was “Active”, the Activity (HCT-116 [11]) was “Dde” and the Activity (HCT-116 [12]) was 0.18%. For the same molecule, the Activity (HCT-116 [13]) was “Dde”, the Activity (SW480 [14]) was 4.36% and the Activity (SW480 [15]) was 0.08%. For the same molecule, the Activity (SW480 [16]) was 24.45%, the Activity (SW480 [17]) was “Dde” and the Activity (SW480 [18]) was “Active”. For the same molecule, the Activity (SW480 [19]) was “Tde”, the Activity (HCT-116 [20]) was “Active” and the Activity (SW480 [21]) was “Active”. For the same molecule, the Activity (SW480 [22]) was “Active”, the Activity (HCT-116 [23]) was 22.13% and the Activity (HCT-116 [24]) was “Active”. For the same molecule, the Activity (SW480 [25]) was “Dde”, the Activity (HCT-116 [26]) was “Active” and the Activity (SW480 [27]) was 4.98%. For the same molecule, the Activity (HCT-116 [28]) was “Active”, the Activity (HCT-116 [29]) was “Tde” and the Activity (HCT-116 [30]) was 21.81%. For the same molecule, the Activity (HCT-116 [31]) was “Dde”, the Activity (SW480 [32]) was 65.42% and the Activity [33] was “Non-Toxic”.
